These results are taken from US12297190B2, “Modulators of STING (stimulator of interferon genes)” (PFIZER INC., priority 2019, dated 2025).

Structures are written as SMILES.

In this assay the target is R232-STING (Homo sapiens, UniProt Q86WV6, H232R). Kind of assay: biochemical.
Sequence of R232-STING (Q86WV6 155-341 H232R): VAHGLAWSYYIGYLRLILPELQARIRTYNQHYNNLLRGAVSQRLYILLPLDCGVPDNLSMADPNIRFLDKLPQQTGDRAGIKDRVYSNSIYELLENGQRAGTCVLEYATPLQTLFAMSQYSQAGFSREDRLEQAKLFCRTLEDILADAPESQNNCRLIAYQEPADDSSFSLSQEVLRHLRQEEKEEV

The compound `CCn1nc(C)cc1-c1nc(-c2nc(C(N)=O)cc3c2cnn3C)n(CCN(C)C)n1` [ZZZ125, 4-{1-[2-(dimethylamino)ethyl]-3-(1-ethyl-3-methyl-1H-pyrazol-5-yl)-1H-1,2,4-triazol-5-yl}-1-methyl-1H-pyrazolo[4,3-c]pyridine-6-carboxamide] yielded an inhibitory constant (Ki) of 512 nM.
Turning to `CCn1nc(C)c(F)c1-c1nc(-c2nc(C(N)=O)cc3c2cnn3CCN2C[C@@H](C)O[C@@H](C)C2)n(C)n1` [ZZZ087, 1-{2-[(2R,6S)-2,6-dimethylmorpholin-4-yl]ethyl}-4-[3-(1-ethyl-4-fluoro-3-methyl-1H-pyrazol-5-yl)-1-methyl-1H-1,2,4-triazol-5-yl]-1H-pyrazolo[4,3-c]pyridine-6-carboxamide], the Ki was above 990 nM.
Regarding `CCn1nc(C)cc1-c1nnc(-c2cc(C(N)=O)cc3c2nnn3C)[nH]1` [ZZZ002, 4-[5-(1-ethyl-3-methyl-1H-pyrazol-5-yl)-4H-1,2,4-triazol-3-yl]-1-methyl-1H-benzotriazole-6-carboxamide], the Ki is above 990 nM.
Consider `CCn1nc(C)cc1-c1nnc(-c2cc(C(N)=O)cc3c2cnn3Cc2noc3c2CNCC3)[nH]1` [ZZZ068, 4-[5-(1-ethyl-3-methyl-1H-pyrazol-5-yl)-4H-1,2,4-triazol-3-yl]-1-[(4,5,6,7-tetrahydro[1,2]oxazolo[4,5-c]pyridin-3-yl)methyl]-1H-indazole-6-carboxamide], for which the Ki is above 990 nM.
`CCn1nc(C)cc1-c1nnc(-c2cc(C(N)=O)cc3c2cnn3CCCCN(C)C)[nH]1` [ZZZ034, 1-[4-(dimethylamino)butyl]-4-[5-(1-ethyl-3-methyl-1H-pyrazol-5-yl)-4H-1,2,4-triazol-3-yl]-1H-indazole-6-carboxamide] displayed a Ki above 990 nM.
The figure for `CCn1nc(C)cc1-c1nc(CN)c(-c2nc(C(N)=O)cc3c2cnn3C)o1` [ZZZ051, 4-[4-(aminomethyl)-2-(1-ethyl-3-methyl-1H-pyrazol-5-yl)-1,3-oxazol-5-yl]-1-methyl-1H-pyrazolo[4,3-c] pyridine-6-carboxamide] is 191 nM; for `CCn1nc(C)cc1-c1n[nH]c(-c2cc(C(N)=O)cc3c2cnn3CCN2CCOC[C@@H]2C2CC2)n1` (racemic) [ZZZ099, 1-{2-[(3S)-3-cyclopropylmorpholin-4-yl]ethyl}-4-[3-(1-ethyl-3-methyl-1H-pyrazol-5-yl)-1H-1,2,4-triazol-5-yl]-1H-indazole-6-carboxamide] it is 723 nM; for `CCn1nc(C)c(F)c1-c1n[nH]c(-c2cc(C(N)=O)cc3c2cnn3CCCNC)n1` [ZZZ054, 4-[3-(1-ethyl-4-fluoro-3-methyl-1H-pyrazol-5-yl)-1H-1,2,4-triazol-5-yl]-1-[3-(methylamino)propyl]-1H-indazole-6-carboxamide] it is above 1890 nM.
`CCn1nc(C)cc1-c1n[nH]c(-c2cc(C(N)=O)cc3c2cnn3CCN(C)CC(N)=O)n1` [ZZZ105, 1-{2-[(2-amino-2-oxoethyl)(methyl)amino]ethyl}-4-[3-(1-ethyl-3-methyl-1H-pyrazol-5-yl)-1H-1,2,4-triazol-5-yl]-1H-indazole-6-carboxamide] gave a Ki of 879 nM.
The figure for `CCn1nc(C)cc1-c1nnc(-c2cc(C(N)=O)cc3c2cnn3[C@H](C)C2CCN(C)CC2)[nH]1` (racemic) [ZZZ041, 4-[5-(1-ethyl-3-methyl-1H-pyrazol-5-yl)-4H-1,2,4-triazol-3-yl]-1-[(1R)-1-(1-methylpiperidin-4-yl)ethyl]-1H-indazole-6-carboxamide] is above 990 nM.
Compound `CCn1nc(C)cc1-c1nnc(-c2cc(C(N)=O)cc3c2cnn3C[C@@H]2CNCCO2)[nH]1` [ZZZ064, 4-[5-(1-ethyl-3-methyl-1H-pyrazol-5-yl)-4H-1,2,4-triazol-3-yl]-1-{[(2S)-morpholin-2-yl]methyl}-1H-indazole-6-carboxamide] displayed a Ki above 990 nM.
The figure for `CCn1nc(C)cc1-c1n[nH]c(-c2cc(C(N)=O)cc3c2cnn3CCN2CC(O)C2)n1` [ZZZ100, 4-[3-(1-ethyl-3-methyl-1H-pyrazol-5-yl)-1H-1,2,4-triazol-5-yl]-1-[2-(3-hydroxyazetidin-1-yl)ethyl]-1H-indazole-6-carboxamide] is 842 nM.
The figure for `CCn1nc(C)cc1-c1nnc(-c2cc(C(N)=O)cc3c2cnn3CC2CCCN3CCCCC23)[nH]1` (stereo not drawn) [ZZZ016, 4-[5-(1-ethyl-3-methyl-1H-pyrazol-5-yl)-4H-1,2,4-triazol-3-yl]-1-[(octahydro-2H-quinolizin-1-yl)methyl]-1H-indazole-6-carboxamide] is 826 nM; for `CCn1nc(C)cc1-c1n[nH]c(-c2cc(C(N)=O)cc3c2cnn3CCN2CCOCC2(C)C)n1` [ZZZ102, 1-[2-(3,3-dimethylmorpholin-4-yl)ethyl]-4-[3-(1-ethyl-3-methyl-1H-pyrazol-5-yl)-1H-1,2,4-triazol-5-yl]-1H-indazole-6-carboxamide] it is 900 nM; for `CCn1nc(C)cc1-c1nnc(-c2cc(C(N)=O)cc3c2cnn3[C@H]2CCCNC2)[nH]1` (racemic) [ZZZ069, 4-[5-(1-ethyl-3-methyl-1H-pyrazol-5-yl)-4H-1,2,4-triazol-3-yl]-1-[(3S)-piperidin-3-yl]-1H-indazole-6-carboxamide] it is above 990 nM.
For `CCn1nc(C)cc1-c1nnc(-c2cc(C(N)=O)cc3c2cnn3CCC2CCNCC2)[nH]1` [ZZZ073, 4-[5-(1-ethyl-3-methyl-1H-pyrazol-5-yl)-4H-1,2,4-triazol-3-yl]-1-[2-(piperidin-4-yl)ethyl]-1H-indazole-6-carboxamide] the value was 650 nM.
`CCn1nc(C)c(C(F)(F)F)c1-c1nnc(-c2cc(C(N)=O)cc3c2cnn3C)[nH]1` [ZZZ048, 4-{5-[1-ethyl-3-methyl-4-(trifluoromethyl)-1H-pyrazol-5-yl]-4H-1,2,4-triazol-3-yl}-1-methyl-1H-indazole-6-carboxamide] displayed a Ki of 912 nM.
`CCn1nc(C)cc1-c1nnc(-c2cc(C(N)=O)cc3c2cnn3CC[C@H]2CCCCN2C)[nH]1` (racemic) [ZZZ023, 4-[5-(1-ethyl-3-methyl-1H-pyrazol-5-yl)-4H-1,2,4-triazol-3-yl]-1-{2-[(2R)-1-methylpiperidin-2-yl]ethyl}-1H-indazole-6-carboxamide] displayed a Ki above 990 nM.
Take `CCn1nc(C)cc1-c1nnc(-c2cc(C(N)=O)cc3c2cnn3C[C@@H]2CCC3(CNC3)O2)[nH]1` (racemic) [ZZZ063, 4-[5-(1-ethyl-3-methyl-1H-pyrazol-5-yl)-4H-1,2,4-triazol-3-yl]-1-{[(6S)-5-oxa-2-azaspiro[3.4]octan-6-yl]methyl}-1H-indazole-6-carboxamide]: the inhibitory constant (Ki) is above 990 nM.
`CCn1nc(C)cc1-c1nnc(-c2cc(C(N)=O)cc3c2cnn3[C@H]2C[C@H](NC)C2)[nH]1` [ZZZ066, 4-[5-(1-ethyl-3-methyl-1H-pyrazol-5-yl)-4H-1,2,4-triazol-3-yl]-1-[(1r,3r)-3-(methylamino)cyclobutyl]-1H-indazole-6-carboxamide] gave an inhibition constant (Ki) above 990 nM.
In turn, `CCn1nc(C)cc1-c1n[nH]c(-c2cc(C(N)=O)cc3c2cnn3CCN(C)C2CCC2)n1` [ZZZ108, 1-{2-[cyclobutyl(methyl)amino]ethyl}-4-[3-(1-ethyl-3-methyl-1H-pyrazol-5-yl)-1H-1,2,4-triazol-5-yl]-1H-indazole-6-carboxamide] registered an inhibition constant Ki of 850 nM.
`CCN(CCC#N)CCn1ncc2c(-c3nc(-c4cc(C)nn4CC)n[nH]3)cc(C(N)=O)cc21` [ZZZ104, 1-{2-[(2-cyanoethyl)(ethyl)amino]ethyl}-4-[3-(1-ethyl-3-methyl-1H-pyrazol-5-yl)-1H-1,2,4-triazol-5-yl]-1H-indazole-6-carboxamide] yielded an inhibitory constant (Ki) of 806 nM.
The compound `CCn1nc(C)cc1-c1n[nH]c(-c2cc(C(N)=O)cc3c2cnn3CCN2C[C@@H](C)OC[C@H]2C)n1` [ZZZ097, 1-{2-[(2R,5R)-2,5-dimethylmorpholin-4-yl]ethyl}-4-[3-(1-ethyl-3-methyl-1H-pyrazol-5-yl)-1H-1,2,4-triazol-5-yl]-1H-indazole-6-carboxamide] gave a Ki of 661 nM.
On to `CCn1nc(C)cc1-c1nnc(-c2cc(C(N)=O)cc3c2cnn3CC[C@@H]2CCCN(C)C2)[nH]1` (racemic) [ZZZ042, 4-[5-(1-ethyl-3-methyl-1H-pyrazol-5-yl)-4H-1,2,4-triazol-3-yl]-1-{2-[(3S)-1-methylpiperidin-3-yl]ethyl}-1H-indazole-6-carboxamide], for which the inhibition constant (Ki) was above 990 nM.
Compound `CCn1nc(C)cc1-c1nnc(-c2cc(C(N)=O)cc3c2cnn3C[C@H]2CCCN2C)[nH]1` [ZZZ027, 4-[5-(1-ethyl-3-methyl-1H-pyrazol-5-yl)-4H-1,2,4-triazol-3-yl]-1-{[(2R)-1-methylpyrrolidin-2-yl]methyl}-1H-indazole-6-carboxamide] returned a Ki above 990 nM.
With `CCN1CCCC[C@@H]1Cn1ncc2c(-c3nnc(-c4cc(C)nn4CC)[nH]3)cc(C(N)=O)cc21` (racemic) [ZZZ014, 4-[5-(1-ethyl-3-methyl-1H-pyrazol-5-yl)-4H-1,2,4-triazol-3-yl]-1-{[(2R)-1-ethylpiperidin-2-yl]methyl}-1H-indazole-6-carboxamide], the Ki is above 990 nM.
In turn, `CCn1nc(C)cc1-c1nnc(-c2cc(C(N)=O)cc3c2cnn3CCOCCN(C)C)[nH]1` [ZZZ021, 1-{2-[2-(dimethylamino)ethoxy]ethyl}-4-[5-(1-ethyl-3-methyl-1H-pyrazol-5-yl)-4H-1,2,4-triazol-3-yl]-1H-indazole-6-carboxamide] returned a Ki above 990 nM.
The compound `CCn1nc(C)cc1-c1n[nH]c(-c2cc(C(N)=O)cc3c2cnn3CCN2CCOC[C@@H]2CO)n1` [ZZZ116, 4-[3-(1-ethyl-3-methyl-1H-pyrazol-5-yl)-1H-1,2,4-triazol-5-yl]-1-{2-[(3S)-3-(hydroxymethyl)morpholin-4-yl]ethyl}-1H-indazole-6-carboxamide] showed a Ki above 990 nM.
In turn, `CCn1nc(C)cc1-c1n[nH]c(-c2cc(C(N)=O)cc3c2cnn3CCN2CCO[C@@H](CO)C2)n1` [ZZZ115, 4-[3-(1-ethyl-3-methyl-1H-pyrazol-5-yl)-1H-1,2,4-triazol-5-yl]-1-{2-[(2R)-2-(hydroxymethyl)morpholin-4-yl]ethyl}-1H-indazole-6-carboxamide] gave a Ki of 846 nM.
`CCn1nc(C)cc1-c1nnc(-c2cc(C(N)=O)cc3c2cnn3CCCC2CCCNC2)[nH]1` (stereo not drawn) [ZZZ079, 4-[5-(1-ethyl-3-methyl-1H-pyrazol-5-yl)-4H-1,2,4-triazol-3-yl]-1-[3-(piperidin-3-yl)propyl]-1H-indazole-6-carboxamide]: the affinity corresponds to a Ki of 785 nM.
